IC50 and EC50 data for 27 compounds are collected here from US10738041B2, “Ferroportin inhibitors” (Vifor (International) AG, priority 2015, dated 2020).

In test [1] the target is T1, ferroportin (Fpn) (Mus musculus, UniProt Q9JHI9).
T1 construct: host or cells: J774 mouse macrophage cell line, Fe(III)-NTA induced
T1 sequence (Q9JHI9 1-570): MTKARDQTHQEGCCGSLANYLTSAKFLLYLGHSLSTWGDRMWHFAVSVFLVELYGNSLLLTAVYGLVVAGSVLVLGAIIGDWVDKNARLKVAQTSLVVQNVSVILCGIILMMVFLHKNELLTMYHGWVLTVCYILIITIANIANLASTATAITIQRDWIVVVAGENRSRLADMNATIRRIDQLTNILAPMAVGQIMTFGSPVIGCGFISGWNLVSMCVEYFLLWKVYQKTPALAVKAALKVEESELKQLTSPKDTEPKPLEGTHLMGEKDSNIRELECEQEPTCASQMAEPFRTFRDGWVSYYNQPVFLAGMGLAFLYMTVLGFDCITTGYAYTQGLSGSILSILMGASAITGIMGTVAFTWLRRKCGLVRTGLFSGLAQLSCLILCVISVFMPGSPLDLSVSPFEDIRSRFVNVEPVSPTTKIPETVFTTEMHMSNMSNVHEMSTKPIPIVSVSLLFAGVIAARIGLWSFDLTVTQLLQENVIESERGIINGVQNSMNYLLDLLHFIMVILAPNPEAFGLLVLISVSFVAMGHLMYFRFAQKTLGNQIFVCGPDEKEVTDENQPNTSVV
Nature of the test: Hepcidin Internalization Assay (J774). Conditions: average of multiple measurements; inhibition of TMR-hepcidin (25 nM) internalization into J774 cells; read-out: J774 IC50. The format is cell-based. The essentials:
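Inhibition of fluorescent TMR-hepcidin uptake via ferroportin was imaged in fixed J774 cells after a 2 h, 37 °C co-incubation with compound dilutions; cells were pre-cultured overnight with 200 μM Fe(III)NTA. Internalized TMR signal per cell (Sum(Mean)) was fitted as log(inhibitor) vs. response for IC50, in triplicate.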

Test [2] has as its target T2, human Fpn (Homo sapiens, UniProt Q9NP59).
T2 construct: FLAG (C); made in house; host or cells: Pichia pastoris
T2 sequence (Q9NP59 1-571): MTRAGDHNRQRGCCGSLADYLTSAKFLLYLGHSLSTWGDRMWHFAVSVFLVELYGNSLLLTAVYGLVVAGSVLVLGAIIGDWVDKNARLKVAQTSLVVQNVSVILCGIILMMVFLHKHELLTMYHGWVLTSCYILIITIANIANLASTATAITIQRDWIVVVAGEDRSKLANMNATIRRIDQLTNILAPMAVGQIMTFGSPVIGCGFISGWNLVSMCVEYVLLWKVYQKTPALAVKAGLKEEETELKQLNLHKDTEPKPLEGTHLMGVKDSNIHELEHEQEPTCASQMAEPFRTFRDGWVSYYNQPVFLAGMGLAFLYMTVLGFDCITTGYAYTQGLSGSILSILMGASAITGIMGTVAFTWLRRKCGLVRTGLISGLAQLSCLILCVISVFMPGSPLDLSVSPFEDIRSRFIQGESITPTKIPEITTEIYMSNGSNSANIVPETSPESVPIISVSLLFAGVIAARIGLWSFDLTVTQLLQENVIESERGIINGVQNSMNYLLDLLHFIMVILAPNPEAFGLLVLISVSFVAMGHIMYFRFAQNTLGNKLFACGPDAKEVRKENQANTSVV
Nature of the test: Biophysical Ferroportin-Hepcidin Binding Assay (fluorescence polarization). The settings on record: average of multiple measurements; 1 μM human Fpn, 20 nM TMR-hepcidin; read-out: FP IC50. The essentials:
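FP readout: a dose-dependent drop in TMR-hepcidin polarization (mP, from parallel and perpendicular emission) marked blocked binding to FLAG-tagged human Fpn purified from Pichia pastoris. Final levels were 1 μM Fpn and 20 nM TMR-hepcidin, with compound dilutions in duplicate, incubated 90 min at room temperature.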
Background: In fluorescence polarisation assays a small probe gives low polarisation when free and higher when bound to something large.

Test [3] addresses T3, human Fpn-GFP fusion (Homo sapiens, UniProt Q9NP59).
T3 construct: expressed in transfected cells; host or cells: HEK-293 cell line #354 (derivative of HEK-293 Tet-ON Advanced, Clontech)
T3 sequence (Q9NP59 1-571): T2 sequence (Q9NP59 1-571)
Nature of the test: Inhibition of ferroportin mediated iron export activity in an iron response assay (BLAzer). The format is cell-based. Conditions: average of multiple measurements; HEK-293 cell line #354; read-out: BLAzer EC50. The source says: Intracellular iron levels are indirectly measured in this assay by monitoring the activity of a beta-lactamase (BLA) reporter gene fused to the human ferritin promoter and the associated iron regulatory element (IRE) contained within the 5′ untranslated region of the ferritin mRNA. Expression of ferroportin (Fpn) in such a cell line leads to iron efflux and lower iron levels as reflected by lower activity of the reporter gene. On the other hand, inhibition of Fpn-mediated iron efflux results in elevated cellular iron levels which is detected as increased reporter gene activity. Small molecular weight Fpn inhibitor compounds were tested for dose-dependent effects in this in vitro iron response assay as described below.
The HEK-293 cell line #354 was generated by stable integration of (i) a human Fpn-GFP fusion construct inserted in a derivative of the doxycycline-inducible pTRE-Tight-BI plasmid (Clontech, Cat. 631068) and (ii) a human ferritin promoter-BLA reporter gene into a derivative of the HEK-293 Tet-ON Advanced cell line (Clontech). […] After overnight incubation, 10 μl/well of dilution series of the test compounds were added in quadruplicates and plates were further incubated overnight at 37° C. with 5% CQ. Cells were washed 3 times with HBSS leaving 25 μl per well. BLA activity was detected by adding 5 μl/well of the GeneBlazer reagent CCF4-AM (Invitrogen, Cat. K1085) to the cells. After incubation of the plates in the dark at 18° C. for 60 min., blue and green fluorescence signals were measured in a Safre2 fluorescence plate reader (Tecan) with excitation at 410 nm and emissions at 458 nm (blue) and 522 nm (green). The ratio of blue/green fluorescence as a measure for BLA activity was calculated and EC50 values were determined with the calculated blue/green fluorescence ratios as described for the hepcidin internalization assay.

In the case of `O=C(NCc1ccccc1S(=O)(=O)N1CCOCC1)c1csc(CCNCc2nc3ccccc3[nH]2)n1` [Example 75], the IC50 (in general, the concentration that gives 50% inhibition) amounted to 530 nM in test [1] and 1830 nM in test [2]. Moreover, the EC50 (in general, the concentration needed to bring the measured effect to its halfway point) in test [3] was 6000 nM.

Consider `Cc1ccc(F)c(CNC(=O)c2csc(CCNCc3nc4ccccc4[nH]3)n2)n1` [Example 79], for which the values for the IC50 in test [1] and in test [2] were 37 nM and 820 nM, respectively. Besides, the EC50 in test [3] stood at 840 nM.

In the case of `Cn1cncc1CNC(=O)c1csc(CCNCc2nc3ccccc3[nH]2)n1` [Example 84], the results for the concentration for half-maximal inhibition (IC50) in test [1] and in test [2] were 400 nM and 2410 nM, respectively. In addition, the EC50 in test [3] stood at 13200 nM.

In the case of `O=C(NCc1ncco1)c1csc(CCNCc2nc3ccccc3[nH]2)n1` [Example 85], the 50% inhibitory concentration (IC50) in test [1] came out at 29 nM; in test [2], 1870 nM. In addition, the EC50 in test [3] was 18700 nM.

For `Cn1ccc(CNC(=O)c2csc(CCNCc3nc4ccccc4[nH]3)n2)n1` [Example 86], the half-inhibitory concentration (IC50) in test [1] stood at 480 nM; in test [2], 4960 nM. In addition, in test [3], the EC50 came to 22300 nM.

As to `O=C(NCc1cccnn1)c1csc(CCNCc2nc3ccccc3[nH]2)n1` [Example 87], the results for the IC50 in test [1] and in test [2] were 190 nM and 2250 nM, respectively. Besides, in test [3], the EC50 was 16600 nM.

Turning to `Cn1nccc1CNC(=O)c1csc(CCNCc2nc3ccccc3[nH]2)n1` [Example 88], the IC50 in test [1] worked out at 780 nM; in test [2] it was 6760 nM. Also, the EC50 in test [3] stood at 13100 nM.

Take `O=C(NCc1ccncc1F)c1csc(CCNCc2nc3ccccc3[nH]2)n1` [Example 89]: the half-maximal inhibitory concentration (IC50) in test [1] was determined as 89 nM; in test [2], 922 nM. Besides, the EC50 in test [3] is 5050 nM.

As to `Cc1ccc(CNC(=O)c2csc(CCNCc3nc4ccccc4[nH]3)n2)nn1` [Example 93], the IC50 stood at 530 nM in test [1] and 1030 nM in test [2]. In test [3], the EC50 was found to be 20600 nM.

As for `Cc1ccc(CNC(=O)c2csc(CCNCc3nc4ccccc4[nH]3)n2)nc1` [Example 97], the IC50 in test [1] came to 270 nM; in test [2], 2130 nM. For the same compound, the EC50 in test [3] came to 1810 nM.

As for `Cc1cc(CNC(=O)c2csc(CCNCc3nc4ccccc4[nH]3)n2)ccn1` [Example 99], the IC50 in test [1] turned out to be 2990 nM; in test [2], 4330 nM. In addition, the EC50 in test [3] is 22800 nM.

With `Cc1c(CNC(=O)c2csc(CCNCc3nc4ccccc4[nH]3)n2)cnn1C` [Example 100], the IC50 in test [1] came to 460 nM; in test [2], 1420 nM. Besides, the concentration giving a half-maximal response (EC50) in test [3] was determined as 6560 nM.

As for `O=C(NCc1ncc(C(F)(F)F)cc1Cl)c1csc(CCNCc2nc3ccccc3[nH]2)n1` [Example 101], the IC50 in test [1] worked out at 280 nM; in test [2], 315 nM. Further, the EC50 in test [3] came out at 2920 nM.

On to `O=C(NCc1ncc(F)cc1Cl)c1csc(CCNCc2nc3ccccc3[nH]2)n1` [Example 102], for which the IC50 in test [1] was found to be 58 nM; in test [2], 258 nM. Also, the EC50 in test [3] amounted to 1850 nM.

With `Cc1cc(C)c(CNC(=O)c2csc(CCNCc3nc4ccccc4[nH]3)n2)cn1` [Example 105], the IC50 in test [1] was found to be 77 nM; in test [2], 420 nM. In addition, the EC50 in test [3] came to 2630 nM.

`O=C(c1csc(CCNCc2nc3ccccc3[nH]2)n1)N1CCc2ncccc2C1` [Example 107]: the figures for the IC50 in test [1] and in test [2] were 1320 nM and 5740 nM, respectively. In addition, in test [3], the concentration for a half-maximal effect (EC50) came to 21000 nM.

For `O=C(NCc1ncc(F)cc1F)c1csc(CCNCc2nc3ccccc3[nH]2)n1` [Example 108], the IC50 amounted to 130 nM in test [1] and 478 nM in test [2]. Moreover, the EC50 in test [3] was 4120 nM.

`O=C(NCc1ncccc1Cl)c1ncn(CCNCc2nc3ccccc3[nH]2)n1` [Example 170]: the IC50 in test [1] is 482 nM; in test [2], 280 nM. Besides, the EC50 in test [3] came to 3960 nM.

Take `O=C(CCNCCc1nc2ccccc2[nH]1)NCC(=O)NCc1ncccc1F` [compound 190]: the IC50 was found to be 740 nM in test [1] and 660 nM in test [2]. Further, the half-maximal effective concentration (EC50) in test [3] was determined as 27300 nM.

Consider `O=C(NCCCCNCc1nc2ccccc2[nH]1)NCc1ncccc1F` [compound 197], for which the IC50 in test [1] is 610 nM; in test [2] it was 550 nM. The concentration for a half-maximal effect (EC50) in test [3] amounted to 18100 nM.

As for `O=C(NCc1ncccc1F)N1CCCC(CCNCCc2nc3ccccc3[nH]2)C1` (stereo not drawn) [compound 200], the IC50 in test [1] is 3140 nM; in test [2], 5650 nM. The EC50 in test [3] came out at 45100 nM.

`O=C(CNC(=O)C1CN(CCc2nc3ccccc3[nH]2)C1)NCc1ncccc1F` [compound 201]: the IC50 in test [1] worked out at 1930 nM; in test [2], 790 nM. For the same compound, the EC50 in test [3] was 39400 nM.

Consider `O=C(NCc1ncccc1F)c1cncc(CCNCc2nc3ccccc3[nH]2)c1` [compound 221], for which the IC50 in test [1] is 360 nM; in test [2] it was 147 nM. In addition, in test [3], the EC50 is 16900 nM.

For `O=C(NCc1ncccc1F)c1cc(CCNCc2nc3ccccc3[nH]2)ccn1` [compound 232], the IC50 in test [1] was 1900 nM; in test [2], 267 nM. In test [3], the EC50 is 12000 nM.

On to `O=C(NCc1ncccc1F)c1cncc(CCNCCc2nc3cc(F)ccc3[nH]2)c1` [compound 245], for which the IC50 in test [1] stood at 188 nM; in test [2] it was 295 nM. The EC50 in test [3] amounted to 6140 nM.

With `O=C(NCc1ncccc1F)c1cncc(CCNCCc2nc3c(F)cccc3[nH]2)c1` [compound 246], the IC50 in test [1] worked out at 276 nM; in test [2] it was 263 nM. In addition, the EC50 in test [3] came out at 12900 nM.

For `O=C(NCc1ncccc1F)c1cncc(C2CN(CCc3nc4c(F)cccc4[nH]3)C2)c1` [compound 248], the IC50 amounted to 363 nM in test [1] and 306 nM in test [2]. For the same compound, in test [3], the EC50 is 6340 nM.
